Experimental data as given in patent US20100111965A1, “COMBINATION THERAPY” (FUSION ANTIBODIES LIMITED, priority 2006, published 2010).

System: RKO +/+
Experiment: Western blot of AREG protein in RKO lysates after chemotherapy
Assay type: cell-based, human
Conditions: RKO p53 wild type lysates; 48 hour treatment
Procedure: FIG. 2 illustrates western blot analysis of AREG and gamma tubulin protein expression in HCT116 +/+ and RKO +/+ with/without a 48 hour CPT11 or 5-Fu treatment; HCT 116, RKO, HT 29 and H630 are human colorectal carcinoma cell lines. After different time exposure to chemotherapy the cells were harvested, and washed in 1×PBS. The cell pellet was then lysed in a suitable amount of 1×RIPA lysis buffer (150 mM NaCl, 10 mM Tris at pH 7.2, 0.1% SDS, 1.0% triton X-100 and 5 mM.EDTA) supplemented with protease inhibitors. The cell lysate was briefly vortexed, incubated on ice for 10 min and then centrifuged at 12,000 rpm to remove cell debris. Following centrifugation, the lysate supernatant was removed to a fresh eppendorf tube. Protein concentrations were assayed using the BCA Protein Assay (Pierce) according to the manufacturer's instructions. The absorbance of each sample at 620 nm was assayed using a microplate reader. A standard BSA curve was plotted for each experiment and the protein concentration of each sample calculated. To each sample an equal volume of 5× Western sample buffer and 10% of the final volume of β-mercaptoethanol (Sigma) was added. The samples were denatured at 95° C. for 5 minutes and placed on ice prior to loading onto SDS polyacrylamide gel (SDS PAGE). […] Protein bands were detected by exposure to autoradiograph which was subsequently developed. […]

CCc1c2c(nc3ccc(OC(=O)N4CCC(N5CCCCC5)CC4)cc13)-c1cc3c(c(=O)n1C2)COC(=O)[C@]3(O)CC [CPT-11, irinotecan]
AREG protein expression (western blot): Enhanced AREG expression
